Measurements published in patent US20160270410A1, “INSECTICIDAL COMPOSITIONS AND METHODS OF USING THE SAME” (Clarke Mosquito Control Products, Inc., priority 2011, published 2016).

Tested on: 3rd instar Aedes aegypti
Test: Laboratory bioassay in larval trays, larvicide surface film, Aedes aegypti
Assay type: in vivo
Conditions: components of Sample 42 tested neat, rate 663 μL, 21° C.
Protocol: Laboratory Bioassay Method. All larvae were reared on a diet of ground TETRAMIN® fish food (Tetra, Blacksburg, Va.) in an insectary maintained at 30° C. and 45% relative humidity (RH). Mainly third instars of Aedes aegypti were used for the laboratory container experiments. Anopheles quadrimaculatus and Culex quinquefasciatus were also tested where indicated.
Laboratory bioassays were conducted in […] plastic larval trays (laboratory containers). Each tray was filled with 27 liters of de-chlorinated water and received 50 healthy third instar larvae. The temperature of the water during most of the studies was 21° C. Additional testing was done at a water temperature of 15.6° C. and 28° C. Treatments were applied at a rate of 3 gal/acre or 663 μL/tray with an Eppendorf pipette. During the experimental period larvae were fed ground TETRAMIN® fish food (Tetra, Blacksburg, Va.) that was blended with water before introduction into the water of the larval tray to prevent flotation and thus interference with the surface film being tested.
Trays were scored for mortality at 1, 2, 4, 24, 48, and 72 hours following treatment introduction. At each time period the numbers of live and dead larvae were counted. […] Each treatment in the study was replicated three times using separate trays for each replication. A 95% mortality rate was considered acceptable for a commercial product.

For ethoxylated tridecyl alcohol, the “% MORTALITY 24 HAT” value (24 HAT) was 17%, the “% MORTALITY 48 HAT” value (48 HAT) was 20% and the “% MORTALITY 72 HAT” value (72 HAT) was 25%.
